# Laboratory results as given in patent publication US20230389548A1, “MIXTURES OF PYRIMIDINES AS HERBICIDAL COMPOSITIONS” (SYNGENTA CROP PROTECTION AG, priority 2020, published 2023).
# Key:
# Experiment in all cases: Post-emergence glasshouse spray test, visual percentage phytotoxicity after 13 days
# Format in all cases: in vivo
# [1] = test system: Abutilon threophrasti (ABUTH); conditions: B1
# Outline: (§1)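 Visual damage score, 0–100 (100 = total damage), taken 13 days after spraying relative to untreated plants; 2–4 replicates in randomised blocks. Spray at 500 l/Ha on 8-day-old pot-grown plants, compound in IF50/acetone then 0.2% Genapol XO80. Mixture expected effect from Colby formula.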
# [2] = test system: Ipomoea hederacea (IPOHE); conditions: for IPOHE percentage phytotoxicity: B1
# Outline: as §1
# [3] = test system: Lolium perenne (LOLPE); conditions: for LOLPE percentage phytotoxicity: B1; for Observed phytotoxicity LOLPE: B2.3.4
# Outline: as §1
# [4] = test system: Digitaria sanguinalis (DIGSA); conditions: for DIGSA percentage phytotoxicity: B1
# Outline: as §1
# [5] = test system: Setaria faberi (SETFA); conditions: for SETFA percentage phytotoxicity: B1; for Observed phytotoxicity SETFA: B2.3.1
# Outline: as §1
# [6] = test system: Amaranthus retroflexus (AMARE); conditions: B1
# Outline: as §1
# [7] = test system: Alopecurus myosuroides (ALOMY); conditions: for ALOMY percentage phytotoxicity: B1
# Outline: as §1
# [8] = test system: Echinochloa crus-galli (ECHCG); conditions: for ECHCG percentage phytotoxicity: B1; for Observed phytotoxicity ECHCG: B2.3.2
# Outline: as §1
# [9] = test system: Stellaria media (STEME); conditions: for STEME percentage phytotoxicity: B1
# Outline: as §1
# [10] = test system: Chenopodium album (CHEAL); conditions: B1
# Outline: as §1
smiles,measurement,setting,value
CCOC(=O)COc1ncccc1Oc1cc(-n2c(=O)cc(C(F)(F)F)n(C)c2=O)c(F)cc1Cl [B-V],ABUTH percentage phytotoxicity,[1]; 0.31 g/ha post-emergence,97%
same,ABUTH percentage phytotoxicity,[1]; 0.625 g/ha post-emergence,98%
same,ABUTH percentage phytotoxicity,[1]; 1.25 g/ha post-emergence,100%
same,ABUTH percentage phytotoxicity,[1]; 2.5 g/ha post-emergence,100%
same,ABUTH percentage phytotoxicity,[1]; 5 g/ha post-emergence,100%
same,IPOHE percentage phytotoxicity,[2]; 0.31 g/ha post-emergence,58%
same,IPOHE percentage phytotoxicity,[2]; 0.625 g/ha post-emergence,70%
same,IPOHE percentage phytotoxicity,[2]; 1.25 g/ha post-emergence,100%
same,IPOHE percentage phytotoxicity,[2]; 2.5 g/ha post-emergence,100%
same,IPOHE percentage phytotoxicity,[2]; 5 g/ha post-emergence,100%
same,Observed phytotoxicity IPOHE,"[2]; B2.3.6, 0.3125 g/ha post-emergence",58%
same,LOLPE percentage phytotoxicity,[3]; 0.31 g/ha post-emergence,2%
same,LOLPE percentage phytotoxicity,[3]; 0.625 g/ha post-emergence,0%
same,LOLPE percentage phytotoxicity,[3]; 1.25 g/ha post-emergence,8%
same,LOLPE percentage phytotoxicity,[3]; 2.5 g/ha post-emergence,15%
same,LOLPE percentage phytotoxicity,[3]; 5 g/ha post-emergence,25%
same,Observed phytotoxicity LOLPE,[3]; 1.25 g/ha post-emergence,8%
same,Observed phytotoxicity LOLPE,[3]; 2.5 g/ha post-emergence,15%
same,DIGSA percentage phytotoxicity,[4]; 0.31 g/ha post-emergence,13%
same,DIGSA percentage phytotoxicity,[4]; 0.625 g/ha post-emergence,43%
same,DIGSA percentage phytotoxicity,[4]; 1.25 g/ha post-emergence,88%
same,DIGSA percentage phytotoxicity,[4]; 2.5 g/ha post-emergence,99%
same,DIGSA percentage phytotoxicity,[4]; 5 g/ha post-emergence,100%
same,Observed phytotoxicity DIGSA,"[4]; B2.3.3, 0.625 g/ha post-emergence",43%
same,SETFA percentage phytotoxicity,[5]; 0.31 g/ha post-emergence,30%
same,SETFA percentage phytotoxicity,[5]; 0.625 g/ha post-emergence,38%
same,SETFA percentage phytotoxicity,[5]; 1.25 g/ha post-emergence,85%
same,SETFA percentage phytotoxicity,[5]; 2.5 g/ha post-emergence,99%
same,SETFA percentage phytotoxicity,[5]; 5 g/ha post-emergence,100%
same,Observed phytotoxicity SETFA,[5]; 0.625 g/ha post-emergence,38%
same,Observed phytotoxicity SETFA,[5]; 1.25 g/ha post-emergence,85%
same,AMARE percentage phytotoxicity,[6]; 0.31 g/ha post-emergence,98%
same,AMARE percentage phytotoxicity,[6]; 0.625 g/ha post-emergence,98%
same,AMARE percentage phytotoxicity,[6]; 1.25 g/ha post-emergence,100%
same,AMARE percentage phytotoxicity,[6]; 2.5 g/ha post-emergence,100%
same,AMARE percentage phytotoxicity,[6]; 5 g/ha post-emergence,100%
same,ALOMY percentage phytotoxicity,[7]; 0.31 g/ha post-emergence,2%
same,ALOMY percentage phytotoxicity,[7]; 0.625 g/ha post-emergence,2%
same,ALOMY percentage phytotoxicity,[7]; 1.25 g/ha post-emergence,10%
same,ALOMY percentage phytotoxicity,[7]; 2.5 g/ha post-emergence,20%
same,ALOMY percentage phytotoxicity,[7]; 5 g/ha post-emergence,28%
same,Observed phytotoxicity ALOMY,"[7]; B2.3.5, 1.25 g/ha post-emergence",10%
same,ECHCG percentage phytotoxicity,[8]; 0.31 g/ha post-emergence,5%
same,ECHCG percentage phytotoxicity,[8]; 0.625 g/ha post-emergence,3%
same,ECHCG percentage phytotoxicity,[8]; 1.25 g/ha post-emergence,9%
same,ECHCG percentage phytotoxicity,[8]; 2.5 g/ha post-emergence,23%
same,ECHCG percentage phytotoxicity,[8]; 5 g/ha post-emergence,65%
same,Observed phytotoxicity ECHCG,[8]; 0.625 g/ha post-emergence,3%
same,Observed phytotoxicity ECHCG,[8]; 1.25 g/ha post-emergence,9%
same,Observed phytotoxicity ECHCG,[8]; 2.5 g/ha post-emergence,23%
same,STEME percentage phytotoxicity,[9]; 0.31 g/ha post-emergence,25%
same,STEME percentage phytotoxicity,[9]; 0.625 g/ha post-emergence,83%
same,STEME percentage phytotoxicity,[9]; 1.25 g/ha post-emergence,83%
same,STEME percentage phytotoxicity,[9]; 2.5 g/ha post-emergence,100%
same,STEME percentage phytotoxicity,[9]; 5 g/ha post-emergence,100%
same,Observed phytotoxicity STEME,"[9]; B2.3.7, 0.3125 g/ha post-emergence",25%
same,CHEAL percentage phytotoxicity,[10]; 0.31 g/ha post-emergence,85%
same,CHEAL percentage phytotoxicity,[10]; 0.625 g/ha post-emergence,96%
same,CHEAL percentage phytotoxicity,[10]; 1.25 g/ha post-emergence,93%
same,CHEAL percentage phytotoxicity,[10]; 2.5 g/ha post-emergence,100%
same,CHEAL percentage phytotoxicity,[10]; 5 g/ha post-emergence,100%
